Test system: OVCAR-5 complex spheroids with HUVEC/MSC, viability, % test/control
Assay: Anticancer human tumor OVCAR-5 cell line growth inhibition [AhR];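 further: spheroids exposed to compounds for 7 days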;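 on viability, T/C: 100% = DMSO vehicle control wells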
Details: for IC50: curve of first compound; for viability, T/C: stronger effect = lower value; active means viability on the fitted dose curve at most 10% of control; inactive means the rest
Summary of the method: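 Spheroids combined tumor cells with HUVEC endothelial cells and human MSCs as stroma. AhR antagonists were paired with standard or investigational drugs, each dosed in half-log steps down from near clinical Cmax, or from 10 microM where Cmax was unknown.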

[1] = second compound 0.1 µM, first compound 0.0316 µM
[2] = second compound 0.1 µM, first compound 0.1 µM
[3] = second compound 0.316 µM, first compound 0.0316 µM
[4] = second compound 0.316 µM, first compound 0.1 µM
[5] = second compound 1 µM, first compound 0.0316 µM
[6] = second compound 1 µM, first compound 0.1 µM
[7] = second compound 3.16 µM, first compound 0.0316 µM
[8] = second compound 3.16 µM, first compound 0.1 µM
[9] = second compound 10 µM, first compound 0.0316 µM
[10] = second compound 10 µM, first compound 0.1 µM
[11] = second compound 0.1 µM, first compound 0.316 µM
[12] = second compound 0.1 µM, first compound 1 µM
[13] = second compound 0.1 µM, first compound 3.16 µM
[14] = second compound 0.1 µM, first compound 10 µM
[15] = second compound 0.316 µM, first compound 0.316 µM
[16] = second compound 0.316 µM, first compound 1 µM
[17] = second compound 0.316 µM, first compound 3.16 µM
[18] = second compound 0.316 µM, first compound 10 µM
[19] = second compound 1 µM, first compound 0.316 µM
[20] = second compound 1 µM, first compound 1 µM
[21] = second compound 1 µM, first compound 3.16 µM
[22] = second compound 1 µM, first compound 10 µM
[23] = second compound 3.16 µM, first compound 0.316 µM
[24] = second compound 3.16 µM, first compound 1 µM
[25] = second compound 3.16 µM, first compound 3.16 µM
[26] = second compound 3.16 µM, first compound 10 µM
[27] = second compound 10 µM, first compound 0.316 µM
[28] = second compound 10 µM, first compound 1 µM
[29] = second compound 10 µM, first compound 3.16 µM
[30] = second compound 10 µM, first compound 10 µM

CC[C@@]1(O)C(=O)OCc2c1cc1n(c2=O)Cc2cc3c(CN(C)C)c(O)ccc3nc2-1 + Cc1ccccc1N=Nc1ccc(NC(=O)c2ccnn2C)c(C)c1
28.2 nM: IC50 (second compound 10 µM)
25.3 nM: IC50 (second compound 1 µM)
inactive: viability, T/C (second compound 0.1 µM, first compound 0.000316 µM) 103% | viability, T/C (second compound 0.1 µM, first compound 0.001 µM) 102% | viability, T/C (second compound 0.1 µM, first compound 0.00316 µM) 94% | viability, T/C (second compound 0.1 µM, first compound 0.01 µM) 79.2% | viability, T/C [1] 34.7% | viability, T/C [2] 42.4% | viability, T/C (second compound 0.316 µM, first compound 0.000316 µM) 105% | viability, T/C (second compound 0.316 µM, first compound 0.001 µM) 103% | viability, T/C (second compound 0.316 µM, first compound 0.00316 µM) 96% | viability, T/C (second compound 0.316 µM, first compound 0.01 µM) 84.6% | viability, T/C [3] 36.5% | viability, T/C [4] 42.7% | viability, T/C (second compound 1 µM, first compound 0.000316 µM) 112% | viability, T/C (second compound 1 µM, first compound 0.001 µM) 108% | viability, T/C (second compound 1 µM, first compound 0.00316 µM) 104% | viability, T/C (second compound 1 µM, first compound 0.01 µM) 89.3% | viability, T/C [5] 38.7% | viability, T/C [6] 42.4% | viability, T/C (second compound 3.16 µM, first compound 0.000316 µM) 113% | viability, T/C (second compound 3.16 µM, first compound 0.001 µM) 110% | viability, T/C (second compound 3.16 µM, first compound 0.00316 µM) 108% | viability, T/C (second compound 3.16 µM, first compound 0.01 µM) 92% | viability, T/C [7] 41% | viability, T/C [8] 47.4% | viability, T/C (second compound 10 µM, first compound 0.000316 µM) 100% | viability, T/C (second compound 10 µM, first compound 0.001 µM) 104% | viability, T/C (second compound 10 µM, first compound 0.00316 µM) 101% | viability, T/C (second compound 10 µM, first compound 0.01 µM) 89% | viability, T/C [9] 40.9% | viability, T/C [10] 50.4%
24.3 nM: IC50 (second compound 0.316 µM)
27.5 nM: IC50 (second compound 3.16 µM)
22.9 nM: IC50 (second compound 0.1 µM)

CCc1c2c(nc3ccc(O)cc13)-c1cc3c(c(=O)n1C2)COC(=O)[C@]3(O)CC + Cc1ccccc1N=Nc1ccc(NC(=O)c2ccnn2C)c(C)c1
9.46 nM: IC50 (second compound 3.16 µM)
10.5 nM: IC50 (second compound 10 µM)
8.2 nM: IC50 (second compound 0.316 µM)
inactive: viability, T/C (second compound 0.1 µM, first compound 0.000949 µM) 85.7% | viability, T/C (second compound 0.1 µM, first compound 0.003 µM) 64.3% | viability, T/C (second compound 0.1 µM, first compound 0.00949 µM) 37.1% | viability, T/C (second compound 0.1 µM, first compound 0.03 µM) 36.9% | viability, T/C (second compound 0.1 µM, first compound 0.0949 µM) 22.5% | viability, T/C (second compound 0.1 µM, first compound 0.3 µM) 7.67% | viability, T/C (second compound 0.316 µM, first compound 0.000949 µM) 87.4% | viability, T/C (second compound 0.316 µM, first compound 0.003 µM) 70.3% | viability, T/C (second compound 0.316 µM, first compound 0.00949 µM) 39.2% | viability, T/C (second compound 0.316 µM, first compound 0.03 µM) 37% | viability, T/C (second compound 0.316 µM, first compound 0.0949 µM) 18.7% | viability, T/C (second compound 1 µM, first compound 0.000949 µM) 91.3% | viability, T/C (second compound 1 µM, first compound 0.003 µM) 73.4% | viability, T/C (second compound 1 µM, first compound 0.00949 µM) 40.8% | viability, T/C (second compound 1 µM, first compound 0.03 µM) 38.3% | viability, T/C (second compound 1 µM, first compound 0.0949 µM) 20.9% | viability, T/C (second compound 3.16 µM, first compound 0.000949 µM) 95.9% | viability, T/C (second compound 3.16 µM, first compound 0.003 µM) 70.7% | viability, T/C (second compound 3.16 µM, first compound 0.00949 µM) 45.4% | viability, T/C (second compound 3.16 µM, first compound 0.03 µM) 38.1% | viability, T/C (second compound 3.16 µM, first compound 0.0949 µM) 18.4% | viability, T/C (second compound 10 µM, first compound 0.000949 µM) 89.5% | viability, T/C (second compound 10 µM, first compound 0.003 µM) 65.9% | viability, T/C (second compound 10 µM, first compound 0.00949 µM) 45.9% | viability, T/C (second compound 10 µM, first compound 0.03 µM) 42.1% | viability, T/C (second compound 10 µM, first compound 0.0949 µM) 21.5%
9.43 nM: IC50 (second compound 1 µM)
active: viability, T/C (second compound 0.316 µM, first compound 0.3 µM) 6.8% | viability, T/C (second compound 1 µM, first compound 0.3 µM) 7.02% | viability, T/C (second compound 3.16 µM, first compound 0.3 µM) 7.44% | viability, T/C (second compound 10 µM, first compound 0.3 µM) 8.22%
6.95 nM: IC50 (second compound 0.1 µM)

Nc1ccccc1NC(=O)c1ccc(CNC(=O)OCc2cccnc2)cc1 + Cc1ccccc1N=Nc1ccc(NC(=O)c2ccnn2C)c(C)c1
824 nM: IC50 (second compound 0.316 µM)
856 nM: IC50 (second compound 1 µM)
active: viability, T/C [14] 7.82% | viability, T/C [18] 8.39% | viability, T/C [22] 9.13% | viability, T/C [26] 9.43% | viability, T/C [30] 9.42%
1110 nM: IC50 (second compound 10 µM)
913 nM: IC50 (second compound 0.1 µM)
827 nM: IC50 (second compound 3.16 µM)
inactive: viability, T/C [1] 95.1% | viability, T/C [2] 89.9% | viability, T/C [11] 74.8% | viability, T/C [12] 48.6% | viability, T/C [13] 20.3% | viability, T/C [3] 98.8% | viability, T/C [4] 93.6% | viability, T/C [15] 76.6% | viability, T/C [16] 44.4% | viability, T/C [17] 19.3% | viability, T/C [5] 102% | viability, T/C [6] 94.4% | viability, T/C [19] 83.9% | viability, T/C [20] 43.8% | viability, T/C [21] 18.7% | viability, T/C [7] 103% | viability, T/C [8] 99.9% | viability, T/C [23] 79.1% | viability, T/C [24] 44.1% | viability, T/C [25] 19% | viability, T/C [9] 91.1% | viability, T/C [10] 96.1% | viability, T/C [27] 75.4% | viability, T/C [28] 56% | viability, T/C [29] 19.9%

Nc1ccn(C2OC(CO)C(O)C2(F)F)c(=O)n1 (stereo not given) + Cc1ccccc1N=Nc1ccc(NC(=O)c2ccnn2C)c(C)c1
< 31.6 nM: IC50 (second compound 0.1 µM) | IC50 (second compound 0.316 µM) | IC50 (second compound 1 µM) | IC50 (second compound 3.16 µM) | IC50 (second compound 10 µM)
inactive: viability, T/C [1] 27.7% | viability, T/C [2] 25.4% | viability, T/C [11] 26.3% | viability, T/C [12] 27.4% | viability, T/C [13] 28.5% | viability, T/C [14] 28.1% | viability, T/C [3] 27.5% | viability, T/C [4] 25.3% | viability, T/C [15] 26.4% | viability, T/C [16] 26.9% | viability, T/C [17] 29% | viability, T/C [18] 29.1% | viability, T/C [5] 29.7% | viability, T/C [6] 27.1% | viability, T/C [19] 26.7% | viability, T/C [20] 27.1% | viability, T/C [21] 28% | viability, T/C [22] 27.9% | viability, T/C [7] 28.9% | viability, T/C [8] 27.2% | viability, T/C [23] 27.1% | viability, T/C [24] 28.2% | viability, T/C [25] 29.3% | viability, T/C [26] 29.2% | viability, T/C [9] 31.6% | viability, T/C [10] 29.2% | viability, T/C [27] 31.9% | viability, T/C [28] 31.1% | viability, T/C [29] 32.2% | viability, T/C [30] 31%

O=C(c1cc(Cc2n[nH]c(=O)c3ccccc23)ccc1F)N1CCN(C(=O)C2CC2)CC1 + Cc1ccccc1N=Nc1ccc(NC(=O)c2ccnn2C)c(C)c1
inactive: viability, T/C [1] 103% | viability, T/C [2] 105% | viability, T/C [11] 102% | viability, T/C [12] 99.8% | viability, T/C [13] 92.5% | viability, T/C [14] 85% | viability, T/C [3] 107% | viability, T/C [4] 109% | viability, T/C [15] 105% | viability, T/C [16] 104% | viability, T/C [17] 98.3% | viability, T/C [18] 90.6% | viability, T/C [5] 111% | viability, T/C [6] 114% | viability, T/C [19] 115% | viability, T/C [20] 109% | viability, T/C [21] 101% | viability, T/C [22] 94.2% | viability, T/C [7] 111% | viability, T/C [8] 115% | viability, T/C [23] 114% | viability, T/C [24] 106% | viability, T/C [25] 107% | viability, T/C [26] 99.4% | viability, T/C [9] 99.3% | viability, T/C [10] 110% | viability, T/C [27] 103% | viability, T/C [28] 106% | viability, T/C [29] 96.7% | viability, T/C [30] 89.1%
> 10000 nM: IC50 (second compound 0.1 µM) | IC50 (second compound 0.316 µM) | IC50 (second compound 1 µM) | IC50 (second compound 3.16 µM) | IC50 (second compound 10 µM)

Reference: PubChem BioAssay AID1919015 (Molecular Pharmacology Branch, DTP, NCI, 2023)
